From US9845319B2, “Amide substituted thiazoles as modulators of RORyt” (Janssen Pharmaceutica NV, priority 2014, dated 2017)

What was measured:
[1] = tested on: IL-17 production by CD4 T cells; assay: Human Th17 Assay; assay type: cell-based; conditions: 72 h; IL-17 in supernatant, 3 days, human CD4+ T cells; read-out: Human Th17 Assay, IC50
Procedure: The human Th17 assay tests the effect of RORγt modulatory compounds on IL-17 production by CD4 T cells under conditions which favor Th17 differentiation. Total CD4^+ T cells were isolated from the peripheral blood mononuclear cells (PBMC) of healthy donors using a CD4^+ T cell isolation kit II, following the manufacturer's instructions (Miltenyi Biotec). […] 50 μL of compound at titrated concentrations in DMSO were added into each well at final DMSO concentration at 0.2%. Cells were incubated for 1 hour, then 50 μL of Th17 cell differentiation medium was added to each well. The final concentrations of antibodies and cytokines (R&D Systems) in differentiation medium were: 3×10^6/mL anti-CD3/CD28 beads (prepared using human T cell activation/expansion kit, Miltenyi Biotec), 10 μg/mL anti-IL4, 10 μg/mL anti-IFNγ, 10 ng/mL IL1β, 10 ng/mL IL23, 50 ng/mL IL6, 3 ng/mL TGFβ and 20 U/mL IL2. Cells were cultured at 37° C. and 5% CO2 for 3 days. Supernatants were collected and the accumulated IL-17 in culture was measured by using MULTI-SPOT® Cytokine Plate following manufacture's instruction (Meso Scale Discovery). The plate was read using Sector Imager 6000, and IL-17 concentration was extrapolated from the standard curve. The IC50s were determined by GraphPad.

[2] = target: T1, human RORγt ligand binding domain (RORγt LBD) (Homo sapiens, UniProt P51449); assay: RORγt ThermoFluor assay; conditions: estimated from thermal shift concentration response
T1 construct: His-tag (N); TurboTEV protease cleavage site (ENLYFQG) (N); made in house; host or cells: E. coli (pHIS1, a modified pET expression vector)
T1 sequence (P51449 with tags, fused parts or gaps): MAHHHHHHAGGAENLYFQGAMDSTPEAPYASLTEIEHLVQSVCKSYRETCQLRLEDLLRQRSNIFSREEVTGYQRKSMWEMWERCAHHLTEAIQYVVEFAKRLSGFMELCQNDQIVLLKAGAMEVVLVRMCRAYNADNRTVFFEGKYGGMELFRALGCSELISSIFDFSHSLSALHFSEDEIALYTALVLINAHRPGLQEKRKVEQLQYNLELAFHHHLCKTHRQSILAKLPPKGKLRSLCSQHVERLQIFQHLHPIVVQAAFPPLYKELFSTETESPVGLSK
How it was run: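 Thermal shift of RORγt LBD (0.065 mg/mL) with 60 μM 1,8-ANS in 100 mM Hepes pH 7.0, NaCl, GSH, 0.002% Tween-20, heated at 1° C/min. ANS fluorescence tracked versus temperature; ΔTm relative to DMSO wells. Compounds serially diluted 1:2 from 10 mM DMSO stock.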

full-length human RORγt = target: T2, full-length human RORγt (Homo sapiens, UniProt P51449); assay: RORγt (full-length human) Reporter Assay, Conditions A; assay type: cell-based; conditions: for IC50: HEK293T cells, GAL4-DBD-RORγt, luciferase, read-out: RORγt (FL) Reporter Assay A, IC50; for inhibition at 6 µM: read-out: RORγt (FL) Reporter Assay A, % inhibition @ 6 μM, 6 μM compound
T2 construct: expressed in transfected cells; host or cells: HEK293T, transiently transfected with pCMV-BD-ROR
T2 sequence (P51449 1-497 isoform P51449-2): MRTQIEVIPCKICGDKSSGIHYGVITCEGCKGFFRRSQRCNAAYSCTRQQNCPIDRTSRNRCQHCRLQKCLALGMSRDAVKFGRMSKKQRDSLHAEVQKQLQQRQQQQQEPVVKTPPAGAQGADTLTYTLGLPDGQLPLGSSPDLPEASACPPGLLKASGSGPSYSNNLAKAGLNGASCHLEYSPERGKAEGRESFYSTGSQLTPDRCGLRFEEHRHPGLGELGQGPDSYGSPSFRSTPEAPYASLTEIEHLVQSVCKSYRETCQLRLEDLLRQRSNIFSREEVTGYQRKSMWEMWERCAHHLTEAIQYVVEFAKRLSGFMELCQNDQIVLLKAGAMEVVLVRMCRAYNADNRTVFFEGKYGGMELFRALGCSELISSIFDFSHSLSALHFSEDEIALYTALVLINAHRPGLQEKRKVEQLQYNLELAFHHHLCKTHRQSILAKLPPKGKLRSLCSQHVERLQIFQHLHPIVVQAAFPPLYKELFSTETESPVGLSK
How it was run: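 Dual-luciferase readout after overnight (16 to 20 hours) treatment: firefly values scaled between DMSO-only and saturating reference-compound controls, then corrected by Renilla. Percent inhibition calculated against DMSO control, with IC50 derived from concentration-response plots.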

CCN(CC)C(=O)c1nc(-c2nnc(CC(C)(C)C(=O)O)o2)sc1-c1ccc(S(=O)(=O)N[C@@H](C)C(F)(F)F)c(Cl)c1Cl [Example 1, (S)-3-(5-(5-(2,3-Dichloro-4-(N-(1,1,1-trifluoropropan-2-yl)sulfamoyl)phenyl)-4-(diethylcarbamoyl)thiazol-2-yl)-1,3,4-oxadiazol-2-yl)-2,2-dimethylpropanoic acid]
IC50 [1]: 54 nM | Kd [2]: 1.3 nM | IC50 (full-length human RORγt): 1100 nM | inhibition at 6 µM (full-length human RORγt): 89%

CC(C)(Cc1nnc(-c2nc(C(=O)N3CCC(F)CC3)c(-c3cc(C(C)(C)C)cc(C(O)(C(F)(F)F)C(F)(F)F)c3)s2)o1)C(=O)O [Example 2/2, 3-(5-(5-(3-(tert-Butyl)-5-(1,1,1,3,3,3-hexafluoro-2-hydroxypropan-2-yl)phenyl)-4-(4-fluoropiperidine-1-carbonyl)thiazol-2-yl)-1,3,4-oxadiazol-2-yl)-2,2-dimethylpropanoic acid]
IC50 [1]: 150 nM | Kd [2]: 2 nM | IC50 (full-length human RORγt): 150 nM | inhibition at 6 µM (full-length human RORγt): 104%

C[C@H](NS(=O)(=O)c1ccc(-c2sc(-c3nnc(C(C)(C)O)o3)nc2C(=O)N2CCOC[C@@H]2C)c(Cl)c1Cl)C(F)(F)F [Example 6/9, 2,3-Dichloro-4-(2-(5-(2-hydroxypropan-2-yl)-1,3,4-oxadiazol-2-yl)-4-((S)-3-methylmorpholine-4-carbonyl)thiazol-5-yl)-N—((S)-1,1,1-trifluoropropan-2-yl)benzenesulfonamide]
IC50 [1]: 100 nM | Kd [2]: 6.5 nM | IC50 (full-length human RORγt): 110 nM | inhibition at 6 µM (full-length human RORγt): 108%

CC(C)(O)c1nnc(-c2nc(C(=O)N3CCC(F)(F)CC3)c(-c3ccc(C(O)C4(C(F)(F)F)CC4)c(Cl)c3Cl)s2)o1 (stereo not shown) [Example 8/4, (5-(2,3-Dichloro-4-(hydroxy(1-(trifluoromethyl)cyclopropyl)methyl)phenyl)-2-(5-(2-hydroxypropan-2-yl)-1,3,4-oxadiazol-2-yl)thiazol-4-yl)(4,4-difluoropiperidin-1-yl)methanone]
IC50 [1]: ~6000 nM | Kd [2]: 12 nM | IC50 (full-length human RORγt): 320 nM | inhibition at 6 µM (full-length human RORγt): 47%

CC[C@H](NS(=O)(=O)c1ccc(-c2sc(-c3noc(CC(C)(C)C(=O)O)n3)nc2C(=O)N2CCC(F)(F)CC2)c(OC(F)(F)F)c1)C(F)(F)F [Example 10/2, (S)-3-(3-(4-(4,4-Difluoropiperidine-1-carbonyl)-5-(4-(N-(1,1,1-trifluorobutan-2-yl)sulfamoyl)-2-(trifluoromethoxy)phenyl)thiazol-2-yl)-1,2,4-oxadiazol-5-yl)-2,2-dimethylpropanoic acid]
IC50 [1]: 76 nM | Kd [2]: 0.04 nM | IC50 (full-length human RORγt): 57 nM | inhibition at 6 µM (full-length human RORγt): 106%

CC[C@H](NS(=O)(=O)c1ccc(-c2sc(-c3nnn[nH]3)nc2C(=O)N2CCCC[C@@H]2C)c(Cl)c1Cl)C(F)(F)F [Example 15, 2,3-Dichloro-4-(4-((S)-2-methylpiperidine-1-carbonyl)-2-(1H-tetrazol-5-yl)thiazol-5-yl)-N—((S)-1,1,1-trifluorobutan-2-yl)benzenesulfonamide]
IC50 [1]: 6000 nM | Kd [2]: 0.64 nM | IC50 (full-length human RORγt): 1900 nM | inhibition at 6 µM (full-length human RORγt): 59%

C[C@H](NS(=O)(=O)c1ccc(-c2sc(-c3cc(CC(C)(C)C(=O)O)on3)nc2C(=O)N2CCC(F)(F)CC2)c(C(F)F)c1F)C(F)(F)F [Example 18, (S)-3-(3-(5-(2-(Difluoromethyl)-3-fluoro-4-(N-(1,1,1-trifluoropropan-2-yl)sulfamoyl)phenyl)-4-(4,4-difluoropiperidine-1-carbonyl)thiazol-2-yl)isoxazol-5-yl)-2,2-dimethylpropanoic acid]
IC50 [1]: 410 nM | Kd [2]: 3.7 nM | IC50 (full-length human RORγt): 350 nM | inhibition at 6 µM (full-length human RORγt): 103%

C[C@H](NS(=O)(=O)c1ccc(-c2sc(-c3cc(CC(C)(C)C(=O)O)on3)nc2C(=O)N2CC(F)(F)C[C@@H]2C)c(C(F)F)c1F)C(F)(F)F [Example 18/1, 3-(3-(4-((S)-4,4-Difluoro-2-methylpyrrolidine-1-carbonyl)-5-(2-(difluoromethyl)-3-fluoro-4-(N—((S)-1,1,1-trifluoropropan-2-yl)sulfamoyl)phenyl)thiazol-2-yl)isoxazol-5-yl)-2,2-dimethylpropanoic acid]
IC50 [1]: 470 nM | Kd [2]: 5.6 nM | IC50 (full-length human RORγt): 170 nM | inhibition at 6 µM (full-length human RORγt): 104%

CC[C@H](NS(=O)(=O)c1ccc(-c2sc(-c3cccc(CC(C)(C)C(=O)O)n3)nc2C(=O)N2CCC(F)(F)CC2)c(C(F)F)c1F)C(F)(F)F [Example 19, (S)-3-(6-(5-(2-(Difluoromethyl)-3-fluoro-4-(N-(1,1,1-trifluorobutan-2-yl)sulfamoyl)phenyl)-4-(4,4-difluoropiperidine-1-carbonyl)thiazol-2-yl)pyridin-2-yl)-2,2-dimethylpropanoic acid]
IC50 [1]: 9 nM | Kd [2]: 0.013 nM | IC50 (full-length human RORγt): 8 nM | inhibition at 2 µM (full-length human RORγt; read-out: RORγt (FL) Reporter Assay A, % inhibition (* at 2 μM), 2 μM compound concentration (footnote *)): 99%

Cc1c(S(=O)(=O)N[C@@H](C)C(F)(F)F)ccc(-c2sc(-c3nnc(C(C)(C)O)o3)nc2C(=O)N2CCC(F)(F)CC2)c1Cl [Example 27, 3-Chloro-4-(4-(4,4-difluoropiperidine-1-carbonyl)-2-(5-(2-hydroxypropan-2-yl)-1,3,4-oxadiazol-2-yl)thiazol-5-yl)-2-methyl-N—((S)-1,1,1-trifluoropropan-2-yl)benzenesulfonamide]
IC50 [1]: 9 nM | Kd [2]: 0.38 nM | IC50 (full-length human RORγt): 30 nM | inhibition at 6 µM (full-length human RORγt): 107%
